The source made the active and inactive calls.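 Rule for the calls: active = EC50 under a set limit in control cells lacking the mosquito receptor, marking a fluorescence artifact; inactive = the rest.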

Data on eleven compounds can be found in PubChem BioAssay AID1259426 (Fisher Drug Discovery Resource Center, 2018).

This test addresses HEK293 Galpha15/GCaMP6s without NPYLR7, calcium fluorescence. Briefly: calcium response in NPYLR7-null HEK293 cells, dose response, counter-screen for mosquito NPYLR7 agonist project, cell-based, HEK293 lacking NPYLR7 (AID 1259426).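 Note: potency for a rise in fluorescence over baseline.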 A general note: The purpose of a counterscreen is to sort out artefacts and off-target activity.
What is called EC50 is the concentration at which the effect is half-maximal. With `CC(C)OC(=O)C(C(=O)C(F)(F)F)c1cc(NS(=O)(=O)c2ccc(Cl)cc2)ccc1O` (stereo unspecified), the EC50 is > 20 µM (inactive).

As for `COc1ccc(OC)c(CCNc2nc3cnc(-c4ccc(Cl)cc4)cc3n2C)c1`, the EC50 is > 20 µM (inactive).

On to `O=c1oc2c(CN3CCN(CCO)CC3)c(O)ccc2cc1-c1nc2ccccc2s1`, for which the EC50 is less than 0.039 µM.

In the case of `Nc1ncnc2c1ncn2[C@@H]1O[C@H](CO)[C@@H](O)[C@H]1O`, the EC50 is less than 0.039 µM.

For `O=C(O)CN1C(=O)/C(=C\c2cc([N+](=O)[O-])cc(Br)c2O)SC1=S`, the EC50 is 1.07 µM.

As for `O=C(CC1SC(=O)NC1=O)Oc1ccc(/C=C2\SC(=O)NC2=S)cc1` (stereo unspecified), the 50% effective concentration (EC50) is 7.71 µM.

On to `N#CC(=Cc1c(F)c(F)c(F)c(F)c1F)c1ccccn1`, for which the EC50 was > 20 µM (inactive).

In the case of `Clc1ccc(-c2noc3c2CN(CCn2cc(Cl)cn2)CC3)cc1`, the EC50 was 15.4 µM.

In the case of `CCOC(=O)c1c(-c2ccccc2)csc1N=Cc1nc(-c2ccccc2)oc1O`, the EC50 is > 20 µM (inactive).

For `N#C/C(=C/c1ccc(N2CCCCCC2)o1)c1ccc(F)cc1`, the EC50 is 19.3 µM.

On to `CC1C(=O)c2cccc3c(=O)n(-c4ccccc4)c(O)c(c23)C1=O` (stereo unspecified), for which the EC50 was > 20 µM (inactive).
